Assay results published in patent US6348454B1, “Syntheses of new isodethiaazacephems and isodethiaazacephams, and use as potent antibacterial agents” (National Science Council, priority 1999, dated 2002).
Converted amounts (≈) assume the structure as drawn. Where two headings read alike, the source gives them in different places.

Tests used:
E. coli ATCC 39188 = assay: Antibacterial activity, serial broth dilution method (MIC); assay type: cell-based; conditions: for MIC: Escherichia coli, read-out: Minimal Inhibitory Concentrations
Experimental: (§1) Antimicrob. Agents Chemother. 1978, 14, 807-811] penicillin G [Morris, J. J.; Page, M. I. Intra- and Intermolecular Catalysis in the Aminolysis of Benzylpenicillin. J. Chem. Soc., Perkin Trans 2 1980, 212-219], and 7-(β-phenylacetamido)-3′-desacetoxycephalosporanic acid (±)−2 [Page, M. L.; Proctor, P. Mechanism of β-Lactam Opening in Cephalosporins. J. Am. Chem. Soc. 1984, 106, 3820-3825] in vitro against five pathogenic microorganisms. The doses used were as high as 128 μg/mL.
(§2) The serial broth dilution method was used to study the antibiotic activity [Pursiano, T. A.; Misiek, M.; Leitner, F.; Price, K. E. Effect of Assay Medium on the Antibacterial Activity of Certain Penicillins and Cephalosporins. Antimicrob. Agents Chemother. 1973, 3, 33-39]. The inocula were prepared by use of the heart infusion broth (Difco Laboratories) to make 10^−4 dilutions of the overnight cultures. Tubes of the seeded antibiotic-containing media were incubated at 37° C. for 20 h. The lowest concentration of antibiotic that prevented visible growth of microorganisms was then determined.

K. pneumoniae NCTC 418 = assay: as above; assay type: cell-based; conditions: for MIC: Klebsiella pneumoniae, read-out: Minimal Inhibitory Concentrations
Experimental: as §1, §2

Ps. aeruginosa 1101-75 = assay: as above; assay type: cell-based; conditions: for MIC: read-out: Minimal Inhibitory Concentrations
Experimental: as §1, §2

S. aureus FDA 209P = assay: as above; assay type: cell-based; conditions: 20 h; for MIC: Staphylococcus aureus, FDA209P, read-out: Minimal Inhibitory Concentrations
Experimental: as §1, §2

S. typhi O-901 = assay: as above; assay type: cell-based; conditions: 20 h; for MIC: Salmonella enterica, TYPHI, read-out: Minimal Inhibitory Concentrations; for Minimal Inhibitory Concentrations: S. typhi O-901, average of triplicate determinations, 37° C.
Experimental: as §1, §2

[1] = Stability of β-lactams in water at various pH; conditions: for time within which pH of the aqueous solution changed to ˜1 (destruction of β-lactam ring): initial pH about 4.0; for time the β-lactam ring survived / time within which β-lactam ring was destructed: pH 1.0
Experimental: In another series of assays, we dissolved isodethiaazacephems (±)−3 and (±)−4 as well as isodethiaazacepham (±)−5 in distilled water (5.0 mg/mL).

[2] = test system: five pathogenic microorganisms; assay: Antibacterial activity in vitro, summary in words; assay type: cell-based; conditions: doses as high as 128 μg/mL; Table 1
Experimental: as §1, §2

[3] = ATCC39188, E. coli ATCC 39188, average of triplicate determinations, 37° C., 20 h
[4] = NCTC418, K. pneumoniae NCTC 418, average of triplicate determinations, 37° C., 20 h
[5] = Pseudomonas aeruginosa, 110175, Ps. aeruginosa 1101-75, average of triplicate determinations, 37° C., 20 h
[6] = S. aureus FDA 209P, average of triplicate determinations, 37° C.
[7] = E. coli ATCC 39188, average of triplicate determinations, 37° C., 20 h
[8] = K. pneumoniae NCTC 418, average of triplicate determinations, 37° C., 20 h
[9] = Ps. aeruginosa 1101-75, average of triplicate determinations, 37° C., 20 h
[10] = Pseudomonas aeruginosa, 110175, 20 h

CS(=O)(=O)OC1=C(C(=O)O)N2C(=O)[C@@H](NC(=O)Cc3ccccc3)[C@H]2CN1 (racemic) [(±)-3, (6RS,7SR)-3-Methanesulfonyloxy-8-oxo-7-(phenylacetamido)-1,4-diazabicyclo[4.2.0]oct-2-ene-2-carboxylic Acid]
MIC (E. coli ATCC 39188; [3]): 0.95 µg/mL (≈ 2.4 µM)
MIC (K. pneumoniae NCTC 418; [4]): 0.68 µg/mL (≈ 1.72 µM)
MIC (Ps. aeruginosa 1101-75; [5]): 4.38 µg/mL (≈ 11.1 µM)
MIC (S. aureus FDA 209P; [6]): 0.07 µg/mL (≈ 0.177 µM)
MIC (S. typhi O-901): 1.2 µg/mL (≈ 3.03 µM)
initial pH value of the aqueous solution ([1]; distilled water, 5.0 mg/mL): about 4.0
time within which pH of the aqueous solution changed to ˜1 (destruction of β-lactam ring) ([1]; distilled water, 5.0 mg/mL): three
time the β-lactam ring survived [1]: ~4 h
antibacterial activity (in words) [2]: promising antimicrobial activities
melting point: 115 to 117 °C
solubility (physchem; water): 21 mg/mL (≈ 53100 µM)

CO/N=C(\C(=O)N[C@@H]1C(=O)N2C(C(=O)O)=C(COC(C)=O)CS[C@H]12)c1csc(N)n1 [cefotaxime, reference compound]
MIC (E. coli ATCC 39188; [3]): 0.25 µg/mL (≈ 0.549 µM)
MIC (K. pneumoniae NCTC 418; [4]): 10.2 µg/mL (≈ 22.5 µM)
MIC (Ps. aeruginosa 1101-75; [5]): 62.4 µg/mL (≈ 137 µM)
MIC (S. aureus FDA 209P; [6]): 0.08 µg/mL (≈ 0.176 µM)
MIC (S. typhi O-901): 20.3 µg/mL (≈ 44.6 µM)

CC1(C)S[C@@H]2[C@H](NC(=O)Cc3ccccc3)C(=O)N2[C@H]1C(=O)O [penicillin G, reference compound]
Minimal Inhibitory Concentrations (E. coli ATCC 39188; [7]): 2.30 µg/mL
Minimal Inhibitory Concentrations (S. aureus FDA 209P; [6]): 0.40 µg/mL
Minimal Inhibitory Concentrations (S. typhi O-901): >128 µg/mL

CC1=C(C(=O)O)N2C(=O)C(NC(=O)Cc3ccccc3)C2SC1 (single isomer, unassigned; (+)) [(+)-2, 7-(β-phenylacetamido)-3′-desacetoxycephalosporanic acid, reference compound]
Minimal Inhibitory Concentrations (E. coli ATCC 39188; [7]): 13.13 µg/mL
Minimal Inhibitory Concentrations (K. pneumoniae NCTC 418; [8]): 2.98 µg/mL
Minimal Inhibitory Concentrations (Ps. aeruginosa 1101-75; [9]): 100.0 µg/mL
Minimal Inhibitory Concentrations (S. aureus FDA 209P; [6]): 0.64 µg/mL
Minimal Inhibitory Concentrations (S. typhi O-901): 24.50 µg/mL

O=C(Cc1ccccc1)N[C@@H]1C(=O)N2C(C(=O)O)=C(OS(=O)(=O)C(F)(F)F)NC[C@H]12 (racemic) [(±)-4, (6RS,7SR)-3-Trifluoromethanesulfonyloxy-8-oxo-7-(phenylacetamido)-1,4-diazabicyclo[4.2.0]oct-2-ene-2-carboxylic Acid]
MIC (E. coli ATCC 39188; [3]): 0.09 µg/mL (≈ 0.2 µM)
MIC (K. pneumoniae NCTC 418; [4]): 0.24 µg/mL (≈ 0.534 µM)
MIC (Ps. aeruginosa 1101-75; [5]): 1.15 µg/mL (≈ 2.56 µM)
MIC (S. aureus FDA 209P; [6]): 0.01 µg/mL (≈ 0.0223 µM)
MIC (S. typhi O-901): 0.68 µg/mL (≈ 1.51 µM)
initial pH value of the aqueous solution ([1]; distilled water, 5.0 mg/mL): about 4.0
time within which pH of the aqueous solution changed to ˜1 (destruction of β-lactam ring) ([1]; distilled water, 5.0 mg/mL): two
time the β-lactam ring survived [1]: ~2 h
antibacterial activity (in words) [2]: promising antimicrobial activities
melting point: 100 to 102 °C
solubility (physchem; water): 27 mg/mL (≈ 60100 µM)

O=C(Cc1ccccc1)N[C@@H]1C(=O)N2C(C(=O)O)=C(O)NC[C@H]12 (racemic) [(±)-10, (6RS,7SR)-3-Hydroxy-8-oxo-7-(phenylacetamido)-1,4-diazabicyclo[4.2.0]-oct-2-ene-2-carboxylic Acid]
MIC (E. coli ATCC 39188; [3]): 94.7 µg/mL (≈ 298 µM)
MIC (K. pneumoniae NCTC 418; NCTC418, 20 h): > 128 µg/mL
MIC (Ps. aeruginosa 1101-75; [10]): > 128 µg/mL
MIC (S. aureus FDA 209P; [6]): 29.5 µg/mL (≈ 93 µM)
MIC (S. typhi O-901): > 128 µg/mL
time stable in phosphate buffer ([1]; phosphate buffer (0.10 M, pH 6.8)): two
melting point: 140 to 142 °C
solubility (physchem; pH 6.8, aqueous buffer): 35 mg/mL (≈ 110000 µM)

CS(=O)(=O)C1=C(O)NC[C@@H]2[C@H](NC(=O)Cc3ccccc3)C(=O)N12 (racemic) [(±)-17, (6RS,7SR)-3-Hydroxy-8-oxo-7-(phenylacetamido)-1,4-diazabicyclo[4.2.0]oct-2-ene-2-methylsulfone]
Minimal Inhibitory Concentrations (S. typhi O-901): >128 µg/mL
time within which β-lactam ring was destructed [1]: two

CS(=O)(=O)OC1=C(C(=O)OCc2ccccc2)N2C(=O)[C@@H](NC(=O)Cc3ccccc3)[C@H]2CN1 (racemic) [(±)-11, Benzyl (6RS,7SR)-3-Methanesulfonyloxy-8-oxo-7-(phenylacetamido)-1,4-diazabicyclo[4.2.0]oct-2-ene-2-carboxylate]
MIC (E. coli ATCC 39188; ATCC39188, 20 h): > 128 µg/mL
MIC (K. pneumoniae NCTC 418; NCTC418, 20 h): > 128 µg/mL
MIC (Ps. aeruginosa 1101-75; [10]): > 128 µg/mL
MIC (S. aureus FDA 209P): > 128 µg/mL
MIC (S. typhi O-901): > 128 µg/mL
antibacterial activity (in words) [2]: do not exhibit antibacterial activity

(2RS,6RS,7SR)- and (2SR,6RS,7SR)-2-Methanesulfonyl-3,8-dioxo-7-(phenylacetamido)-1,4-diazabicyclo[4.2.0]octane-2-carboxylic Acid [(±)-5]
Minimal Inhibitory Concentrations (E. coli ATCC 39188; [7]): 97.17 µg/mL
Minimal Inhibitory Concentrations (K. pneumoniae NCTC 418; [8]): 51.02 µg/mL
Minimal Inhibitory Concentrations (Ps. aeruginosa 1101-75; [9]): 120.0 µg/mL
Minimal Inhibitory Concentrations (S. aureus FDA 209P; [6]): 48.50 µg/mL
Minimal Inhibitory Concentrations (S. typhi O-901): 65.30 µg/mL
time within which β-lactam ring was destructed ([1]; acidic solution): ≤ 3 h
time of decarboxylation ([1]; basic solution, pH 12): ≤ 20 min
initial pH value of the aqueous solution ([1]; distilled water, 5.0 mg/mL): about 2.0
time within which pH of aqueous solution changed from 2.0 to 6.0 (decarboxylation to (±)−17) ([1]; distilled water, 5.0 mg/mL): 5-6 days
antibacterial activity (in words) [2]: profound antibacterial activity

O=C(Cc1ccccc1)N[C@@H]1C(=O)N2C(C(=O)OCc3ccccc3)=C(OS(=O)(=O)C(F)(F)F)NC[C@H]12 (racemic) [(±)-12, Benzyl (6RS,7SR)-3-Trifluoromethanesulfonyloxy-8-oxo-7-(phenylacetamido)-1,4-diazabicyclo[4.2.0]oct-2-ene-2-carboxylate]
MIC (E. coli ATCC 39188; ATCC39188, 20 h): > 128 µg/mL
MIC (K. pneumoniae NCTC 418; NCTC418, 20 h): > 128 µg/mL
MIC (Ps. aeruginosa 1101-75; [10]): > 128 µg/mL
MIC (S. aureus FDA 209P): > 128 µg/mL
MIC (S. typhi O-901): > 128 µg/mL
antibacterial activity (in words) [2]: do not exhibit antibacterial activity
